According to patent US3996344A, “Phenethylamine antigenic conjugates, their preparation, antibodies and use” (Biological Developments, Inc., priority 1974, dated 1976):

System: antiserum (antibody raised in rabbits to the antigen of Example I, N-TFA-p-aminoamphetamine coupled to BSA)
Test: Radioimmune assay for amphetamine: competitive inhibition of 3H-d-amphetamine binding to, and cross-reactivity of, antiserum raised to the antigen of Example I
Settings: for Percent Cross-Reactivity: method of Abraham, relative quantity that produces 50% inhibition x 100, d-amphetamine = 100; for Percent Inhibition of Binding 3H-d-amphetamine: 3H-d-amphetamine 137 picograms, 2 hours, 4° C

Row | SMILES | Percent Cross-Reactivity [%] | other results
1 | C[C@@H](N)Cc1ccccc1 [1-amphetamine] | 1.45 | –
2 | C[C@H](N)Cc1ccccc1 [d-amphetamine] | 100 | Percent Inhibition of Binding 3H-d-amphetamine (250 picograms of unlabeled amphetamine): 12%; Percent Inhibition of Binding 3H-d-amphetamine (500 picograms of unlabeled amphetamine): 22%; Percent Inhibition of Binding 3H-d-amphetamine (1,000 picograms of unlabeled amphetamine): 33.5%; Percent Inhibition of Binding 3H-d-amphetamine (10,000 picograms of unlabeled amphetamine): 83.0%
3 | CNCC(O)c1ccc(O)c(OC)c1 (stereo not shown) [metanephrine] | < 0.0125 | –
4 | CN[C@@H](C)Cc1ccccc1 [methadrine] | 0.45 | –
5 | COc1cc(C(O)CN)ccc1O (stereo not shown) [normetanephrine] | < 0.0125 | –
6 | NCCc1ccc(O)cc1 [tyramine] | 3.4 | –
